Reference: US20230405028A1 (priority 2020, published 2023)
Like-named read-outs stand apart in the source and are kept apart here.

Key:
[1] = tested on: COX-2; test: COX-2 in HSIEC cells treated with TNF-α/IFN-γ (western blot, densitometry); assay type: cell-based, human; details: single agent, escalating doses
Description: (§1) Cell Culture: Human primary small intestinal epithelial cells (HSIEC), purchased from Cell Biologics were cultured in Epithelial Cell Medium/w Kit. HSIEC cells were incubated at 37° C. in a humidified atmosphere of 5% CO2. HSIEC cells were treated with mycoplasma removal reagent BM-Cyclin (Roche) to ensure mycoplasma negative before treatment.
To do so, COX-2, an enzyme which mediates the bioconversion of arachidonic acid to inflammatory prostaglandins (PGs), was measured via densitometry. GAPDH was used as a reference housekeeping marker for relative densitometry measures. […] Ethanol or DMSO was used, as indicated in the figures, as a vehicle for dilution and as a negative control showing the amount of the inflammatory marker present when inflammation was not induced.
Increasing doses of each molecule of interest, or each combination of molecules of interest, were then distributed to the HSIEC cells treated to induce inflammatory response. Inflammatory markers COX-2 and/or IL-6 were assessed at specific timepoints after induction of inflammation for protein content marker measured via western blot. GAPDH was used as a reference housekeeping marker for relative densitometry measures of protein content.

[2] = tested on: IL-6; test: IL-6 in HSIEC cells treated with TNF-α/IFN-γ; assay type: cell-based, human; details: single agent, escalating doses
Description: as §1
Induction of Inflammation in HSIECs and Treatment with Molecules of Interest: HSIEC cells grown to 80% confluence were treated with 10 ng/ml TNF-α/IFN-γ (Sigma) (Yang et al., 2015), for the time points indicated in FIG. 9, to assess the best time point for determination of anti-inflammatory potential of the molecules and formulations of interest. To do so, COX-2, an enzyme which mediates the bioconversion of arachidonic acid to inflammatory prostaglandins (PGs), was measured via densitometry. GAPDH was used as a reference housekeeping marker for relative densitometry measures. […] The anti-inflammatory potential of the molecules and formulations of interest were evaluated at 48 hours post-TNF-α/IFN-γ treatment in the HSIEC assays described below due to reduced variability and ability to assess differences between treatments. Ethanol or DMSO was used, as indicated in the figures, as a vehicle for dilution and as a negative control showing the amount of the inflammatory marker present when inflammation was not induced. […]

[3] = tested on: IL-8; test: IL-8 in HSIEC cells treated with TNF-α/IFN-γ; assay type: cell-based, human; details: single agent, escalating doses
[4] = tested on: Human primary small intestinal epithelial cells (HSIEC)
[5] = tested on: individuals; test: Minimum effective dose (MED, MED50) and perceived effects of 5HT2A agonist with or without TRP agonists in individuals; assay type: in vivo, human
[6] = tested on: iNOS; test: iNOS in HSIEC cells treated with TNF-α/IFN-γ; assay type: cell-based, human; details: 5, 10, 20, 40 μM
[7] = tested on: GABA; test: GABA in A-172 cells; assay type: cell-based; details: escalating doses
Text: (§2) This experiment was designed to explore the synergistic interaction of 5HT2A agonist and a TRP agonists on receptors in the brain that are associated with depression and/or inflammation. […] The development of an inflammatory microenvironment is considered important to the initiation and progression of glioblastoma; however, therapeutic approaches to target inflammation have previously been limited. The abnormal function of IL-6 and IL-8 has been predicted to lead to glioblastoma.
(§3) Thus, unlike the experiments on HSIEC cells described above, no inflammatory treatment was applied to the A-172 cells. The A-172 cells were grown to […] confluence on T-25 flasks to allow a 96-hour duration of exposure of the cells to the compounds of interest

[8] = tested on: BDNF; test: BDNF in A-172 cells; assay type: cell-based; details: escalating doses
Text: as §2, §3

[9] = tested on: A-172 glioblastoma cells; test: MTT cell viability assay in A-172 cells
[10] = tested on: individuals; test: Surveys of participants using the formulations (music festival, wellness retreat, home use); details: surveys and self-report
Description: Edible chew and capsule formulations including the Base 07—Complete with coffee beans, the 5HT2A agonist alone with corn starch (positive control) or sugar and placebo formulations including corn starch (negative control) or sugar alone (double negative control) were prepared and provided to small groups of individuals for assessment of the effects of the compositions.
The formulations also included additional GRAS material. […] Some studies were undertaken in the context of a music festival. Other studies were undertaken at psilocybin retreat events. Numerous individuals also self-administered the formulations in their personal space and observed their daily routines over an extended number of days of using the formulations. Exclusion criteria were applied in a questionnaire to exclude individuals with a schizophrenia diagnosis, individuals with a family history of schizophrenia, pregnant individuals, minors and other high-risk categories for using psilocybin.
Typically, between 1 and 9 dosage units were provided to each participant per day. The studies varied in duration from one day to four weeks. Heavier individuals (<75 kg) were typically given larger dosages.
On multiple occasions a standard dose of the chocolate format of the complete recipe was distributed prior to a music festival event in Jamaica. […]

Cc1ccc(C(C)C)cc1O [carvacrol]
doses reducing COX-2 to the greatest extent [1]: 5 µM | doses resulting in reduction of IL-6 [2]: 10 µM | doses resulting in reduction of IL-8 [3]: all doses | effect on cell growth / cellular metabolic activity (MTT, words) [4]: could only be studied at very low dose | Cellular Metabolic Activity ([4]; 5 μM, 24 h): 0.072 | Cellular Metabolic Activity ([4]; 5 μM, 48 h): 0.175 | Cellular Metabolic Activity ([4]; 5 μM, 72 h): 0.261 | Cellular Metabolic Activity ([4]; 5 μM, 96 h): 0.501 | Cellular Metabolic Activity ([4]; 5 μM, time 0): 0.022 | Cellular Metabolic Activity ([4]; 10 μM, 24 h): 0.070 | Cellular Metabolic Activity ([4]; 10 μM, 48 h): 0.164 | Cellular Metabolic Activity ([4]; 10 μM, 72 h): 0.267 | Cellular Metabolic Activity ([4]; 10 μM, 96 h): 0.487 | Cellular Metabolic Activity ([4]; 10 μM, time 0): 0.021 | Cellular Metabolic Activity ([4]; 20 μM, 24 h): 0.071 | Cellular Metabolic Activity ([4]; 20 μM, 48 h): 0.171 | Cellular Metabolic Activity ([4]; 20 μM, 72 h): 0.266 | Cellular Metabolic Activity ([4]; 20 μM, 96 h): 0.461 | Cellular Metabolic Activity ([4]; 20 μM, time 0): 0.022 | Cellular Metabolic Activity ([4]; 40 μM, 24 h): 0.070 | Cellular Metabolic Activity ([4]; 40 μM, 48 h): 0.159 | Cellular Metabolic Activity ([4]; 40 μM, 72 h): 0.272 | Cellular Metabolic Activity ([4]; 40 μM, 96 h): 0.544 | Cellular Metabolic Activity ([4]; 40 μM, time 0): 0.022 | Cellular Metabolic Activity ([4]; 80 μM, 24 h): 0.076 | Cellular Metabolic Activity ([4]; 80 μM, 48 h): 0.120 | Cellular Metabolic Activity ([4]; 80 μM, 72 h): 0.221 | Cellular Metabolic Activity ([4]; 80 μM, 96 h): 0.423 | Cellular Metabolic Activity ([4]; 80 μM, time 0): 0.025 | Cellular Metabolic Activity ([4]; 100 μM, 24 h): 0.069 | Cellular Metabolic Activity ([4]; 100 μM, 48 h): 0.106 | Cellular Metabolic Activity ([4]; 100 μM, 72 h): 0.259 | Cellular Metabolic Activity ([4]; 100 μM, 96 h): 0.397 | Cellular Metabolic Activity ([4]; 100 μM, time 0): 0.026 | Cellular Metabolic Activity ([4]; 200 μM, 24 h): 0.061 | Cellular Metabolic Activity ([4]; 200 μM, 48 h): 0.088 | Cellular Metabolic Activity ([4]; 200 μM, 72 h): 0.179 | Cellular Metabolic Activity ([4]; 200 μM, 96 h): 0.238 | Cellular Metabolic Activity ([4]; 200 μM, time 0): 0.027 | Cellular Metabolic Activity ([4]; 400 μM, 24 h): 0.062 | Cellular Metabolic Activity ([4]; 400 μM, 48 h): 0.079 | Cellular Metabolic Activity ([4]; 400 μM, 72 h): 0.139 | Cellular Metabolic Activity ([4]; 400 μM, 96 h): 0.137 | Cellular Metabolic Activity ([4]; 400 μM, time 0): 0.027

CN(C)CCc1c[nH]c2cccc(OP(=O)(O)O)c12 [psilocybin, 3-[2-(dimethylamino)ethyl]-4-phosphoryloxyindole, reference compound]
reduction in the MED50 with TRP agonists added ([5]; FIGS. 6 to 8): ~60% | MED (dose for 100% of individuals to report a psychoactive effect) ([5]; oral, 70 kg individual): over 0.3 g of dried fruiting bodies | dose reducing iNOS to the greatest extent [6]: 10 µM | dose resulting in the greatest increase of GABA [7]: 5 µM | doses resulting in the decrease of BDNF [8]: 20 µM | effect on cell growth / cellular metabolic activity (MTT, words) [4]: increase growth of cells | Cellular Metabolic Activity ([4]; 5 μM, 24 h): 0.098 | Cellular Metabolic Activity ([4]; 5 μM, 48 h): 0.186 | Cellular Metabolic Activity ([4]; 5 μM, 72 h): 0.380 | Cellular Metabolic Activity ([4]; 5 μM, 96 h): 0.621 | Cellular Metabolic Activity ([4]; 5 μM, time 0): 0.047 | Cellular Metabolic Activity ([4]; 10 μM, 24 h): 0.107 | Cellular Metabolic Activity ([4]; 10 μM, 48 h): 0.198 | Cellular Metabolic Activity ([4]; 10 μM, 72 h): 0.388 | Cellular Metabolic Activity ([4]; 10 μM, 96 h): 0.624 | Cellular Metabolic Activity ([4]; 10 μM, time 0): 0.038 | Cellular Metabolic Activity ([4]; 20 μM, 24 h): 0.150 | Cellular Metabolic Activity ([4]; 20 μM, 48 h): 0.238 | Cellular Metabolic Activity ([4]; 20 μM, 72 h): 0.415 | Cellular Metabolic Activity ([4]; 20 μM, 96 h): 0.635 | Cellular Metabolic Activity ([4]; 20 μM, time 0): 0.038 | Cellular Metabolic Activity ([4]; 40 μM, 24 h): 0.182 | Cellular Metabolic Activity ([4]; 40 μM, 48 h): 0.259 | Cellular Metabolic Activity ([4]; 40 μM, 72 h): 0.467 | Cellular Metabolic Activity ([4]; 40 μM, 96 h): 0.685 | Cellular Metabolic Activity ([4]; 40 μM, time 0): 0.041 | Cellular Metabolic Activity ([4]; 80 μM, 24 h): 0.345 | Cellular Metabolic Activity ([4]; 80 μM, 48 h): 0.371 | Cellular Metabolic Activity ([4]; 80 μM, 72 h): 0.579 | Cellular Metabolic Activity ([4]; 80 μM, 96 h): 0.805 | Cellular Metabolic Activity ([4]; 80 μM, time 0): 0.042 | Cellular Metabolic Activity ([4]; 160 μM, 24 h): 0.523 | Cellular Metabolic Activity ([4]; 160 μM, 48 h): 0.604 | Cellular Metabolic Activity ([4]; 160 μM, 72 h): 0.808 | Cellular Metabolic Activity ([4]; 160 μM, 96 h): 1.099 | Cellular Metabolic Activity ([4]; 160 μM, time 0): 0.042 | Cellular Metabolic Activity ([9]; 5 μM, 24 h): 0.155 | Cellular Metabolic Activity ([9]; 5 μM, 48 h): 0.253 | Cellular Metabolic Activity ([9]; 5 μM, 72 h): 0.374 | Cellular Metabolic Activity ([9]; 5 μM, 96 h): 0.530 | Cellular Metabolic Activity ([9]; 5 μM, time 0): 0.090 | Cellular Metabolic Activity ([9]; 10 μM, 24 h): 0.181 | Cellular Metabolic Activity ([9]; 10 μM, 48 h): 0.269 | Cellular Metabolic Activity ([9]; 10 μM, 72 h): 0.363 | Cellular Metabolic Activity ([9]; 10 μM, 96 h): 0.577 | Cellular Metabolic Activity ([9]; 10 μM, time 0): 0.090 | Cellular Metabolic Activity ([9]; 20 μM, 24 h): 0.201 | Cellular Metabolic Activity ([9]; 20 μM, 48 h): 0.303 | Cellular Metabolic Activity ([9]; 20 μM, 72 h): 0.370 | Cellular Metabolic Activity ([9]; 20 μM, 96 h): 0.636 | Cellular Metabolic Activity ([9]; 20 μM, time 0): 0.082 | Cellular Metabolic Activity ([9]; 40 μM, 24 h): 0.287 | Cellular Metabolic Activity ([9]; 40 μM, 48 h): 0.369 | Cellular Metabolic Activity ([9]; 40 μM, 72 h): 0.457 | Cellular Metabolic Activity ([9]; 40 μM, 96 h): 0.703 | Cellular Metabolic Activity ([9]; 40 μM, time 0): 0.086 | Cellular Metabolic Activity ([9]; 80 μM, 24 h): 0.469 | Cellular Metabolic Activity ([9]; 80 μM, 48 h): 0.528 | Cellular Metabolic Activity ([9]; 80 μM, 72 h): 0.586 | Cellular Metabolic Activity ([9]; 80 μM, 96 h): 0.871 | Cellular Metabolic Activity ([9]; 80 μM, time 0): 0.084 | effect on cell growth (MTT, words) ([9]; A-172, psilocybin 80 μM): modest increase in cell growth | side effects / tolerance / intoxication [10]: no reports of intoxication or other psychoactive effects to a degree that influenced motor skills or coordination
